# Where two headings read alike, the source gives them in different places.
# Columns and labels:
# [1] = Single dose rat PK, intramuscular (Example 39); type: in vivo, Male SD rats
# Protocol: (§1) Animals. Animals (Male SD rats ˜200-250 g and Male Beagle dog ˜12-15 kg) were obtained from an approved vendor.
# (§2) Animals were […] at least 12 hours prior to the administration. All animals had access to Certified Rodent and non-Rodent Diet ad libitum 4 hours post dosing.
# (§3) Dose Formulation. The formulations were prepared on the day of dosing. Animals were dosed within four hours after the formulation is prepared. Two 20 μL aliquots of each formulation were removed from each of the formulation solutions, transferred into 1.5 mL of polypropylene microcentrifuge tubes and run dose validation by LC/UV or LC-MS/MS.
# (§4) Dose Administration. For SC/IM dosing, the dose formulation was administered via subcutaneous/intramuscular injection respectively following facility SOPs.
# (§5) Sample Collection. Approximately 200 μL blood was collected from saphenous vein at each time point for rats and 0.5 mL for rhesus macaques. All blood samples were transferred into microcentrifuge tubes containing 4 μL of K2EDTA (0.5M) as anti-coagulant and placed on wet ice until processed for plasma.
# (§6) Blood/Plasma processing. Blood: Blood samples were processed for plasma by centrifugation at approximately 4° C., 3000 g 15 min within half an hour of collection. Plasma samples was stored in polypropylene tubes, quick frozen over dry ice and kept at −70±10° C. until LC/MS/MS analysis.
# (§7) • LC-MS/MS methods for the quantitative determination of test compound in corresponded biological matrix was developed under non-GLP compliance. • A calibration curve with 8 non-zero calibration standards was applied for the method including LLOQ. • A set of QC samples consisting of low, middle, and high concentration was applied for the method. • The study sample analysis will be performed concurrently with a set of calibration standards and two sets of QC samples using the LC-MS/MS method (If sample numbers were more than 48, then two calibration curves with 2 sets of QC samples were applied). • Acceptance criteria: • Linearity: a minimum of 6 calibration standards was back calculated to within ±20% of their nominal values in plasma. • Accuracy: A minimum of 4 out of 6 QC samples was back calculated to within ±20% of their nominal values in plasma. • Specificity: The mean calculated concentration in the single blank matrix should be 0.5 times the LLOQ. • Sensitivity: the LLOQ will be tried to target 1˜3 ng/mL. • Carryover: the mean calculated carry-over concentration in the single blank matrix immediately after the highest standard injection should be LLOQ. If the carryover couldn't meet the criteria, then the percent of carryover should be estimated following in-house bioanalytical SOP.
# Data Analysis. Plasma concentration versus time data was analyzed by non-compartmental approaches using the Phoenix WinNonlin 6.3 software program. Cmax, Tmax, T1/2, AUC(0-1), AUC(0-int), MRT(0-1), MRT(0-int), % F and graphs of plasma concentration versus time profile were reported.
# Bis-DHA prodrug 9 (31 mg/kg equivalent dose of ETV) and ETV (20 mg/kg) were subjected to single dose rat PK studies via intramuscular route of administration. Non-micronized prodrug and ETV were used. […] Enhanced half-life and mean residence life were also observed for prodrug 9 making it suitable as a long-acting agent.
# The data are shown in graphic form in FIG. 18.
# [2] = male, beagle, dog, in vivo, 20 mg/kg
# Protocol: as §1, §2, §3, §4, §5, §6, §7
# (§8) Data Analysis. Plasma concentration versus time data was analyzed by non-compartmental approaches using the Phoenix WinNonlin 6.3 software program.
# The aqueous suspension formulations were derived from 0.5% CMC-Na and 0.5% Tween 80. […] Micronized ETV (D50=2.4 um; D90=5.0 um) and prodrug 29 (D50=1.8 um; D90=4.0 um) and non-micronized prodrug 11 (D50=4.4 um; D90=13.0 um) were used for this study.
# [3] = Single dose dog PK, intramuscular and subcutaneous, monitored 56 days (Example 41); type: in vivo, Male Beagle dog; settings: dose-normalized
# Protocol: as §1, §2, §3, §4, §5, §6, §7, §8
# The aqueous suspension formulations were derived from 0.5% CMC-Na and 0.5% Tween 80. […] Micronized ETV-palmitate (D50=3.0 um; D90=10.5 um) and prodrug 36 (D50=7.0 um; D90=16.6 um) and non-micronized prodrug 11 (D50=4.4 um; D90=13.0 um) were used for this study.
# The data are shown in graphic form in FIG. 12.
structure (smiles),measurement,setting,value
"C=C1[C@H](CO)[C@@H](O)C[C@@H]1n1cnc2c(=O)[nH]c(N)nc21 [ETV, Entecavir]",d.n. Cmax,"[1]; in vivo, im",91.65 ng/mL/mg/kg
same,Clast,"[1]; male, SD, in vivo",1.4 ng/mL
same,day of Clast,"[1]; male, SD, in vivo",5 days
same,Clast,[2],0.2 ng/mL
same,day of Clast,[2],41 days
same,AUC0-inf,[2]; im,25294 ± 2044 ng·h/mL
same,AUC0-last,[2]; im,25134 ± 1970 ng·h/mL
same,Cmax,[2]; im,2390 ± 219 ng/mL
same,MRT0-inf,[2]; im,30.8 ± 4.8 h
same,T1/2,[2]; im,438 ± 263 h
same,Tmax,[2]; im,2.3 ± 1.2 h
"C=C1[C@H](COC(=O)CC/C=C\C/C=C\C/C=C\C/C=C\C/C=C\C/C=C\CC)[C@@H](OC(=O)CC/C=C\C/C=C\C/C=C\C/C=C\C/C=C\C/C=C\CC)C[C@@H]1n1cnc2c(=O)[nH]c(N)nc21 [Prodrug 9, (4Z,7Z,10Z,13Z,16Z,19Z)-(1S,2R,4S)-4-(2-amino-6-oxo-1H-purin-9(6H)-yl)-2-(((4Z,7Z,10Z,13Z,16Z,19Z)-docosa-4,7,10,13,16,19-hexaenoyloxy)methyl)-3-methylenecyclopentyl docosa-4,7,10,13,16,19-hexaenoate]",half-life and mean residence life,"[1]; single IM dose, compared with ETV",Enhanced
same,d.n. Cmax,"[1]; single IM dose, dose-normalized",0.37 ng/mL/mg/kg
"C=C1[C@H](COC(=O)Cc2ccccc2)[C@@H](OC(=O)Cc2ccccc2)C[C@@H]1n1cnc2c(=O)[nH]c(N)nc21 [Prodrug 11, ((1R,3S,5S)-3-(2-amino-6-oxo-1H-purin-9(6H)-yl)-2-methylene-5-(2-phenylacetoxy)cyclopentyl)methyl 2-phenylacetate]",d.n. AUC0-last,[3]; single IM dose,1286 ng·h/mL/mg/kg
same,d.n. Cmax,[3]; single IM dose,2.2 ng/mL/mg/kg
same,d.n. AUC0-last,[3]; single SC dose,874 ng·h/mL/mg/kg
same,d.n. Cmax,[3]; single SC dose,1.8 ng/mL/mg/kg
C=C1[C@H](CO)[C@@H](OC(=O)Cc2ccccc2)C[C@@H]1n1cnc2c(=O)[nH]c(N)nc21 [Prodrug 36],d.n. AUC0-last,[3]; single SC dose,1586 ng·h/mL/mg/kg
same,d.n. Cmax,[3]; single SC dose,8.2 ng/mL/mg/kg
